Data from ChEMBL document CHEMBL5344409, “Discovery of pan-IAP degraders via a CRBN recruiting mechanism” (2023).
Calls of active or inactive are those of the source. The calls are words filed in the database; no cut-off is given here.

Experiments:
[1] = target: T1, Protein cereblon/E3 ubiquitin-protein ligase XIAP (Homo sapiens) (UniProt P98170+Q96SW2); experiment: PROTAC activity at CRBN/XIAP in human MCF7 cells assessed as induction of XIAP degradation at 1 uM measured after 18 hrs by western blot analysis; format: cell-based
[2] = target: T2, Protein cereblon/Baculoviral IAP repeat-containing protein 3 (Homo sapiens) (UniProt Q13489+Q96SW2); experiment: PROTAC activity at CRBN/cIAP2 in human MCF7 cells assessed as induction of cIAP2 degradation at 1 uM measured after 18 hrs by western blot analysis; format: cell-based
[3] = target: Baculoviral IAP repeat-containing protein 2 (Homo sapiens) (UniProt Q13490); experiment: Induction of cIAP1 degradation in human MCF7 cells at 0.1 uM measured after 18 hrs by western blot analysis; format: cell-based
[4] = target: Protein cereblon (Homo sapiens) (UniProt Q96SW2); experiment: Induction of CRBN degradation in human MCF7 cells by western blot analysis; format: cell-based
[5] = target: T2, Protein cereblon/Baculoviral IAP repeat-containing protein 3 (Homo sapiens); experiment: PROTAC activity at CRBN/cIAP2 in human MCF7 cells assessed as induction of cIAP2 degradation at 0.1 uM measured after 18 hrs by western blot analysis; format: cell-based
[6] = target: T1, Protein cereblon/E3 ubiquitin-protein ligase XIAP (Homo sapiens); experiment: PROTAC activity at CRBN/XIAP in human MCF7 cells assessed as induction of XIAP degradation at 0.1 uM measured after 18 hrs by western blot analysis; format: cell-based
[7] = target: Baculoviral IAP repeat-containing protein 2 (Homo sapiens) (UniProt Q13490); experiment: Induction of cIAP1 degradation in human MCF7 cells at 1 uM measured after 18 hrs by western blot analysis; format: cell-based
[8] = system: MDA-MB-157; experiment: Inhibition of TNFalpha-induced cell invasion in human MDA-MB-157 cells at 0.1 uM measured after 24 hrs in presence of TNFalpha by transwell assay; format: functional, cell-based
[9] = system: MDA-MB-231; experiment: Inhibition of TNFalpha-induced cell migration in human MDA-MB-231 cells at 0.1 uM measured after 24 hrs in presence of TNFalpha by transwell assay; format: functional, cell-based
[10] = system: MDA-MB-157; experiment: Inhibition of TNFalpha-induced cell migration in human MDA-MB-157 cells at 0.1 uM measured after 24 hrs in presence of TNFalpha by transwell assay; format: functional, cell-based
[11] = target: Baculoviral IAP repeat-containing protein 3 (Homo sapiens) (UniProt Q13489); experiment: Induction of cIAP2 degradation in human MCF7 cells by western blot analysis; format: cell-based
[12] = system: MCF7; experiment: Cytotoxicity against human MCF7 cells assessed as inhibition of cell growth measured after 72 hrs by CellTiter-Glo luminescent assay; format: functional
[13] = target: T3, Protein cereblon-IAP (Homo sapiens) (UniProt P98170+Q13489+Q13490+Q96SW2); experiment: PROTAC activity at CRBN/IAP in human MCF7 cells assessed as inhibition of TNFalpha-induced NFkappaB activation by measuring decrease in p65 phosphorylation at 0.1 uM pretreated for 2 hrs followed by stimulation with TNF-alpha for 3 mins by western blot analysis; format: cell-based; conditions: time 123.0 min
[14] = system: MCF7; experiment: Induction of apoptosis in human MCF7 cells assessed as increase in total apoptotic cells at 1 uM measured after 48 hrs by AnnexinV-FITC/PI staining based flow cytometry; format: functional
[15] = system: SK-OV-3; experiment: Cytotoxicity against human SK-OV-3 cells assessed as inhibition of cell growth measured after 72 hrs by CellTiter-Glo luminescent assay; format: functional, cell-based
[16] = target: T3, Protein cereblon-IAP (Homo sapiens); experiment: PROTAC activity at CRBN/IAP in human MCF7 cells assessed as inhibition of TNFalpha-induced NFkappaB activation by measuring decrease in p38 phosphorylation at 0.1 uM pretreated for 2 hrs followed by stimulation with TNF-alpha for 3 mins by western blot analysis; format: cell-based; conditions: time 123.0 min
[17] = system: MCF7; experiment: Induction of apoptosis in human MCF7 cells assessed as increase in PARP cleavage at 0.1 uM measured after 18 hrs by western blot analysis; format: functional, cell-based
[18] = target: T3, Protein cereblon-IAP (Homo sapiens); experiment: PROTAC activity at CRBN/IAP in human MCF7 cells assessed as inhibition of TNFalpha-induced NFkappaB activation by measuring decrease in IKKalpha/beta phosphorylation at 0.1 uM pretreated for 2 hrs followed by stimulation with TNF-alpha for 3 mins by western blot analysis; format: cell-based; conditions: time 123.0 min
[19] = system: MDA-MB-231; experiment: Inhibition of TNFalpha-induced cell invasion in human MDA-MB-231 cells at 0.1 uM measured after 24 hrs in presence of TNFalpha by transwell assay; format: functional, cell-based
[20] = target: Baculoviral IAP repeat-containing protein 2 (Homo sapiens) (UniProt Q13490); experiment: Induction of cIAP1 degradation in human MCF7 cells by western blot analysis; format: cell-based
[21] = system: MCF7; experiment: Induction of apoptosis in human MCF7 cells assessed as increase in caspase 7 cleavage at 0.1 uM measured after 18 hrs by western blot analysis; format: functional, cell-based
[22] = target: T3, Protein cereblon-IAP (Homo sapiens); experiment: PROTAC activity at CRBN/IAP in human MCF7 cells assessed as inhibition of TNFalpha-induced NFkappaB activation by measuring decrease in IkBalpha phosphorylation at 0.1 uM pretreated for 2 hrs followed by stimulation with TNF-alpha for 3 mins by western blot analysis; format: cell-based; conditions: time 123.0 min
[23] = target: T2, Protein cereblon/Baculoviral IAP repeat-containing protein 3 (Homo sapiens); experiment: PROTAC activity at CRBN/cIAP2 in human MCF7 cells assessed as induction of cIAP2 degradation by western blot analysis; format: cell-based

Protein cereblon (Homo sapiens), sequence (Q96SW2 whole entry): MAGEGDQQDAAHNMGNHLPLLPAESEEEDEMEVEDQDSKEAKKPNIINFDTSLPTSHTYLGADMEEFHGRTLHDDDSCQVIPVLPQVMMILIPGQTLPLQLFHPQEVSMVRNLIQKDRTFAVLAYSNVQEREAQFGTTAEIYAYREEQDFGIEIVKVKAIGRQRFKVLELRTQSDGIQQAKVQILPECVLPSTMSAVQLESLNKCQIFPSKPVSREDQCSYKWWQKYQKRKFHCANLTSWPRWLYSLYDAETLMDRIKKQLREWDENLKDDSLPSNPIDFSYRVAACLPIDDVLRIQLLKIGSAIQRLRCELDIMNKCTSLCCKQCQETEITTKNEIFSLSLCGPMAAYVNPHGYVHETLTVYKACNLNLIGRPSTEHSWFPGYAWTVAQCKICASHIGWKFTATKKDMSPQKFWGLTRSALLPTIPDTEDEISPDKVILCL
Baculoviral IAP repeat-containing protein 2 (Homo sapiens), sequence (Q13490 whole entry): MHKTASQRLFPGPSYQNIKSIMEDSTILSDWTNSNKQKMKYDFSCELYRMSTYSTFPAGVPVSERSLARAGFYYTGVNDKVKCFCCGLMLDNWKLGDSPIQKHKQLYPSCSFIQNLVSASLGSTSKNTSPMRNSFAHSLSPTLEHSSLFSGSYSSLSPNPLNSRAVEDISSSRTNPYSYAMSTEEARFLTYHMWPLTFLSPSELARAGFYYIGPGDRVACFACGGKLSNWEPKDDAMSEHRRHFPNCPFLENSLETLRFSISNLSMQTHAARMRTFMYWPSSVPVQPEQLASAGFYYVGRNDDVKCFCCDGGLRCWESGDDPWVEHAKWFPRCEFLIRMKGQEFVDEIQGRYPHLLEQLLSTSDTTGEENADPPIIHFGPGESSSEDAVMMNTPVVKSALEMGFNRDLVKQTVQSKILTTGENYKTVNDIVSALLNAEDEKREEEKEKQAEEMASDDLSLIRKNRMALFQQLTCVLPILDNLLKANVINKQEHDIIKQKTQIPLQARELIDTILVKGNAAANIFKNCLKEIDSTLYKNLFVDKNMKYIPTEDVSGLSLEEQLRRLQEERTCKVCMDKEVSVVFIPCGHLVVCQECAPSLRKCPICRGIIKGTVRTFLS
T3 sequence (P98170 whole entry, looked up): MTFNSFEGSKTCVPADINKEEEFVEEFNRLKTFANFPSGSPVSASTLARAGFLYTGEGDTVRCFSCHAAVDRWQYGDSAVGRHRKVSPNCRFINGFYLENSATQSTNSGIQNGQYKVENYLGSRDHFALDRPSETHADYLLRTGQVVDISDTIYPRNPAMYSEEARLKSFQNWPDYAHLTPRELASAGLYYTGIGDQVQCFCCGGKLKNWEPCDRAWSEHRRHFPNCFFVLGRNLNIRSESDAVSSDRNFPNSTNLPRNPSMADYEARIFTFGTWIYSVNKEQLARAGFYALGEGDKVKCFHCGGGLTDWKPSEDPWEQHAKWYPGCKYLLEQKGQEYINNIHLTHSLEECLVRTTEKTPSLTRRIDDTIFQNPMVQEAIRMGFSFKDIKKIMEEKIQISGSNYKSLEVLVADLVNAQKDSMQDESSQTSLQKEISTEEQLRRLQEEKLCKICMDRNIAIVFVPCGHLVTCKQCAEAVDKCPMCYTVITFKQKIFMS
T3 sequence (Q13489 whole entry, looked up): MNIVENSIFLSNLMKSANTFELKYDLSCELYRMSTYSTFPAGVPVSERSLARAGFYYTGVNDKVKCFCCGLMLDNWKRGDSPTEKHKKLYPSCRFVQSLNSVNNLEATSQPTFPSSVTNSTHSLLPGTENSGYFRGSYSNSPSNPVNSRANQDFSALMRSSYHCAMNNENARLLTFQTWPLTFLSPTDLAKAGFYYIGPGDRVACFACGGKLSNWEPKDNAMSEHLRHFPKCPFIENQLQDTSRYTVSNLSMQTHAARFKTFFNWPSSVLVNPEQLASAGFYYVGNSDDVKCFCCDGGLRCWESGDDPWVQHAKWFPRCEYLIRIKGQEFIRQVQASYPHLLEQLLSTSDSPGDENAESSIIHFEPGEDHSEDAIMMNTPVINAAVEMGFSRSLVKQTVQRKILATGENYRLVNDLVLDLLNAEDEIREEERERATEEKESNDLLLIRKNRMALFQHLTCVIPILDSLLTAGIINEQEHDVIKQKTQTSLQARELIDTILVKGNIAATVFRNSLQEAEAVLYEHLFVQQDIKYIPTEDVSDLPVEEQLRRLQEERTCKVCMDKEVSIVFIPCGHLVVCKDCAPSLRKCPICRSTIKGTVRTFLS
T3 sequence (Q13490 whole entry, looked up): as the sequence (Q13490 whole entry) above
T3 sequence (Q96SW2 whole entry, looked up): as the sequence (Q96SW2 whole entry) above
T1 sequence (P98170 whole entry, looked up): as the sequence (P98170 whole entry, looked up) above
T1 sequence (Q96SW2 whole entry, looked up): as the sequence (Q96SW2 whole entry) above
T2 sequence (Q13489 whole entry, looked up): as the sequence (Q13489 whole entry, looked up) above
T2 sequence (Q96SW2 whole entry, looked up): as the sequence (Q96SW2 whole entry) above
Baculoviral IAP repeat-containing protein 3 (Homo sapiens), sequence (Q13489 whole entry): as the sequence (Q13489 whole entry, looked up) above

Row | Activity [1] [%] | Activity [2] [%] | Activity [3] [%] | Activity [4] | Activity [5] [%] | Activity [6] [%] | Activity [7] [%] | SMILES | also measured
1 | 39 | 100 | 92 | inactive | 100 | 56 | 89 | CN[C@@H](C)C(=O)N[C@H](C(=O)N1Cc2cc(OCCCCCNC(=O)C3CN(c4ccc5c(c4)C(=O)N(C4CCC(=O)NC4=O)C5=O)C3)ccc2C[C@H]1C(=O)N[C@@H]1CCCc2ccccc21)C(C)(C)C (some centres undefined) | –
2 | 73 | 100 | 89 | inactive | 100 | 83 | 91 | CN[C@@H](C)C(=O)N[C@H](C(=O)N1Cc2cc(OCCCCCNC(=O)COc3ccc4c(c3)C(=O)N(C3CCC(=O)NC3=O)C4=O)ccc2C[C@H]1C(=O)N[C@@H]1CCCc2ccccc21)C(C)(C)C (some centres undefined) | –
3 | – | – | – | – | – | – | – | CN[C@@H](C)C(=O)N[C@H](C(=O)N1Cc2cc(OCCCCCCCCNC(=O)C3CN(c4ccc5c(c4)C(=O)N(C4CCC(=O)N(C)C4=O)C5=O)C3)ccc2C[C@H]1C(=O)N[C@@H]1CCCc2ccccc21)C(C)(C)C (some centres undefined) | inhibition [8]: Active; inhibition [9]: Active; inhibition [10]: Active; Activity [11]: Active; GI50 [12]: 77.8 µM; Activity [13]: inactive; Activity [14]: 32%; Activity [15]: Active; Activity [16]: inactive; Activity [17]: Active; Activity [18]: inactive; inhibition [19]: Active; Activity [20]: Active; Activity [21]: Active; Activity [22]: inactive
4 | 82 | 99 | 96 | inactive | 98 | 95 | 97 | CN[C@@H](C)C(=O)N[C@H](C(=O)N1Cc2cc(OCCCCCCCCNC(=O)C3CCN(c4ccc5c(c4)C(=O)N(C4CCC(=O)NC4=O)C5=O)CC3)ccc2C[C@H]1C(=O)N[C@@H]1CCCc2ccccc21)C(C)(C)C (some centres undefined) | –
5 | 0 | 100 | 93 | inactive | 100 | 0 | 95 | CN[C@@H](C)C(=O)N[C@H](C(=O)N1Cc2cc(O)ccc2C[C@H]1C(=O)N[C@@H]1CCCc2ccccc21)C(C)(C)C | Activity [23]: Active; GI50 [12]: > 500 µM; Activity [14]: 31%; Activity [15]: Active; Activity [17]: Active; Activity [20]: Active; Activity [21]: Active
6 | 13 | 100 | 92 | inactive | 97 | 52 | 95 | CN[C@@H](C)C(=O)N[C@H](C(=O)N1Cc2cc(OCCCNC(=O)C3CCN(c4ccc5c(c4)C(=O)N(C4CCC(=O)NC4=O)C5=O)CC3)ccc2C[C@H]1C(=O)N[C@@H]1CCCc2ccccc21)C(C)(C)C (some centres undefined) | –
7 | 78 | 90 | 93 | inactive | 99 | 91 | 91 | CN[C@@H](C)C(=O)N[C@H](C(=O)N1Cc2cc(OCCCCCNC(=O)C3CCN(c4cccc5c4C(=O)N(C4CCC(=O)NC4=O)C5=O)CC3)ccc2C[C@H]1C(=O)N[C@@H]1CCCc2ccccc21)C(C)(C)C (some centres undefined) | –
8 | 0 | 94 | 94 | inactive | 99 | 0 | 93 | CN[C@@H](C)C(=O)N[C@H](C(=O)N1Cc2cc(OCCOCCNC(=O)C3CCN(c4ccc5c(c4)C(=O)N(C4CCC(=O)NC4=O)C5=O)CC3)ccc2C[C@H]1C(=O)N[C@@H]1CCCc2ccccc21)C(C)(C)C (some centres undefined) | –
9 | 58 | 98 | 97 | inactive | 100 | 67 | 98 | CNC(C)C(=O)NC(C(=O)N1Cc2cc(OCCCCCNc3ccc4c(c3)C(=O)N(C3CCC(=O)NC3=O)C4=O)ccc2C[C@H]1C(=O)NC1CCCc2ccccc21)C(C)(C)C (single isomer, unassigned) | –
10 | 65 | 100 | 94 | inactive | 100 | 81 | 92 | CN[C@@H](C)C(=O)N[C@H](C(=O)N1Cc2cc(OCCCCCNc3cccc4c3C(=O)N(C3CCC(=O)NC3=O)C4=O)ccc2C[C@H]1C(=O)N[C@@H]1CCCc2ccccc21)C(C)(C)C (some centres undefined) | –
11 | 78 | 100 | 91 | inactive | 97 | 90 | 93 | CN[C@@H](C)C(=O)N[C@H](C(=O)N1Cc2cc(OCCCCCNC(=O)C3CCN(c4ccc5c(c4)C(=O)N(C4CCC(=O)NC4=O)C5=O)CC3)ccc2C[C@H]1C(=O)N[C@@H]1CCCc2ccccc21)C(C)(C)C (some centres undefined) | –
12 | 65 | 100 | 91 | inactive | 100 | 87 | 92 | CN[C@@H](C)C(=O)N[C@H](C(=O)N1Cc2cc(OCCCCCNC(=O)CNc3ccc4c(c3)C(=O)N(C3CCC(=O)NC3=O)C4=O)ccc2C[C@H]1C(=O)N[C@@H]1CCCc2ccccc21)C(C)(C)C (some centres undefined) | –
